The values that follow come from patent US20220411362A1, “DITERPENOID COMPOUNDS THAT ACT ON PROTEIN KINASE C (PKC)” (K-Gen, Inc., priority 2019, published 2022).

Broadly, the Ki is the dissociation constant of the complex between target and ligand, obtained from inhibition or displacement. Low readings indicate a stronger hold on the target, high ones a looser hold on the target.

Where two headings read alike, the source gives them in different places.

The target of one test is T1, C1b domain of human PKCδ (Homo sapiens, UniProt Q05655).
T1 construct: Genes encoding C1b domains of human PKCα, δ, ε, θ, and PKD1 (PKCμ) were synthesized; made in house; host or cells: E. coli BL21(DE3)
Nature of the test: Competitive 3H-PDBu binding to C1b domain of PKCδ. The note with it: Ki PKCδ, 3H-PDBu competition. The method, boiled down: (§1)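 Affinity was measured by competition with the radiotracer 3H-PDBu for recombinant human GST-C1b fusion proteins expressed in E. coli BL21(DE3). Incubation ran 10 minutes at 37° C with shaking, then 20 minutes on ice, and filter-trapped 3H-PDBu was counted by scintillation. IC50 values were converted to Ki by Cheng-Prusoff using the experimentally determined Kd for each protein preparation.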

For the next test, the target named is T2, C1b domain of human PKCα (Homo sapiens, UniProt P17252).
T2 construct: Genes encoding C1b domains of human PKCα, δ, ε, θ, and PKD1 (PKCμ) were synthesized; made in house; host or cells: E. coli BL21(DE3)
Nature of the test: biochemical. It is filed as binding. The note with it: 3H-PDBu competition; for Ki: Ki PKCα. The method, boiled down: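 Competitive binding against 3H-PDBu tracer used recombinant GST-C1b fusion protein expressed in E. coli. Incubation ran 10 min at 37°C with shaking, then 20 min on ice, followed by filtration and scintillation counting of trapped 3H-PDBu. Affinity was derived using each protein preparation's experimentally determined Kd for 3H-PDBu.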

For test [1], the target named is T3, C1b domain of human PKD1 (PKCμ) (Homo sapiens, UniProt Q15139).
T3 construct: Genes encoding C1b domains of human PKCα, δ, ε, θ, and PKD1 (PKCμ) were synthesized; made in house; host or cells: E. coli BL21(DE3)
T3 sequence (Q15139 270-320 limits assumed): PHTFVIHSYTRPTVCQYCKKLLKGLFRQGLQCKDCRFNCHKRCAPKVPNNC
Nature of the test: biochemical. It is filed as binding. In outline:
as §1

Test [2] concerns phosphorylation of PKCμ, PKCδ and Erk1/2 in A549 lung cancer cells. It is filed as cell-based. The note with it: 30 minutes. As for the experimental part:
Cells were then treated with different drugs at indicated concentrations for 30 minutes. […] Imagequant LAS4000 (GE) was used to scan membranes if secondary antibodies anti-mouse IgG HRP conjugate or anti-rabbit IgG HRP conjugate (dilutions from 1:2000-1:10000) were used. For ProteinSimple Wes system, manufacture's procedure was followed (ProteinSimple 12-230 kDa Wes Separation Module) for sample preparation, loading, running, and data analysis.
Phosphorylation of these sites has been linked to acute activation or catalytic activity of the PKC isoforms and Erk1/2. High level of phosphorylation indicates strong activation.

Test [3] relates to A549 non-small cell lung cancer cell line. Kind of test: Proliferation of A549 (CellTiter Glo). It is filed as cell-based. The note with it: Homo sapiens, A549, 96 h, read-out: IC50 μM (A549 Cell Line). In outline: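 A549 cells (K-Ras mutant) seeded 1,000/well, 24 h at 37° C, then treated with 3-fold serial dilutions (final DMSO ≤0.25%) for 96 h. Viability by CellTiter Glo luminescence; % inhibition vs DMSO-only Max, curve-fit to give IC50, relative IC50 and % top inhibition.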
In general terms: In ATP-based viability assays light output follows the ATP content of the culture.

Test [4] deals with HL-60 (Leukemia) cell line. Kind of test: Proliferation of HL-60. It is filed as cell-based. The note with it: for ratio of (IC50 of K01)/(IC50 of compound), HL-60: value in parenthesis; for IC50: Homo sapiens, HL-60, read-out: IC50 in μM HL-60 (Leukemia). As for the experimental part:
(§2) The diterpenoid compounds were tested in A549, a non-small cell lung cancer cell line harboring a K-Ras activating mutation. Briefly, A549 cells at a density of 1,000 cells/well were seeded in 96-well plates and incubated at 37° C. for 24 hours. A series of different concentrations of compound stocks (500×) were prepared by 3-fold serial dilution in DMSO. These compounds were further diluted in culture media and then added to cells so that the final DMSO concentration was not exceeding 0.25%. After 96 hours of incubation, 50 μL of CellTiter Glo reagent (Promega) was added to each well and luminescence was measured after 10 minutes using EnVision (PerkinElmer). Luminescence from cells treated with DMSO alone was set as Max and % of inhibition was calculated as follows: Inhibition %=(Max−Sample value)/Max×100. Data was analyzed using XL-fit software (ID Business Solutions Ltd.) and IC50, relative IC50, and % of top inhibition was calculated. Some of the compounds in this disclosure were very potent in blocking proliferation of A549 lung cancer cells at low nM range. In addition, potency of inhibiting A549 proliferation correlated well with its binding affinity to PKCs for this series of compounds. In other words, higher affinity binders had stronger inhibitory effects on A549 proliferation. This further support the notion that activation, rather than inhibition, of certain PKC isoforms is required to block proliferation of cancer cells, some of which may harbor K-Ras mutations. This is in sharp contrast to previous literature and common belief that inhibition of PKC is necessary to block cancer cell growth (Kang, 2014, New Journal of Science, 2014:1-36). Data presented here is in agreement with recent findings that many loss-of-function but not gain-of-function mutations of PKC isoforms have been identified in many human cancers (Antal et al., 2015, Cell, 160:489-502).
(§3) The compounds in this disclosure were tested for their potency in blocking proliferation of a few other cancer cells lines, including K-Ras mutant pancreatic cell lines Panc2.13 and KP-4, leukemia cell line HL-60, and lymphoma cell lines Namalwa and Mino. Similar procedures as in Example 67 were followed. Initial cell numbers seeded in 96-well plates were different for different cell lines: 3000 cells/well for Panc2.13; 800-1000 cells/well for KP-4; 5000 cells/well for HL-60; 5000-10000 cells/well for Namalwa and Mino. A ratio ratio of (IC50 of K01)/(IC50 of compound) (data in parenthesis in Table 5) was used to normalize the compound potency from different assay batches to a common comparator […].

The subject of test [5] is Namalwa (Lymphoma) cell line. Nature of the test: Proliferation of Namalwa. It is filed as cell-based. As to conditions: for ratio of (IC50 of K01)/(IC50 of compound), Namalwa: value in parenthesis; for IC50: read-out: IC50 in μM Namalwa (Lymphoma). As for the experimental part:
as §2, §3

For test [6], the system named is Mino (Lymphoma) cell line. Kind of test: Proliferation of Mino. It is filed as cell-based. As to conditions: for IC50: Homo sapiens, MINO, read-out: IC50 in μM Mino (Lymphoma); for ratio of (IC50 of K01)/(IC50 of compound), Mino: value in parenthesis. The method, then:
as §2, §3

A further test has as its target T4, C1b domain of human PKCθ (Homo sapiens, UniProt Q04759).
T4 construct: Genes encoding C1b domains of human PKCα, δ, ε, θ, and PKD1 (PKCμ) were synthesized; made in house; host or cells: E. coli BL21(DE3)
T4 sequence (Q04759 231-281 limits assumed): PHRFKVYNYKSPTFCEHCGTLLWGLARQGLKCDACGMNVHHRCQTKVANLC
Nature of the test: Competitive 3H-PDBu binding to C1b domain of PKCθ. In outline:
as §1

In the next test the target is T5, C1b domain of human PKCε (Homo sapiens, UniProt Q02156).
T5 construct: Genes encoding C1b domains of human PKCα, δ, ε, θ, and PKD1 (PKCμ) were synthesized; made in house; host or cells: E. coli BL21(DE3)
Nature of the test: Competitive 3H-PDBu binding to C1b domain of PKCε. In outline:
as §1

The test system of test [7] is Panc2.13 (Pancreatic) cell line. Kind of test: Proliferation of Panc2.13. It is filed as cell-based. The method, then: as §2, §3
In test [8] the test system is KP-4 (Pancreatic) cell line. Kind of test: Proliferation of KP-4. It is filed as cell-based. The note with it: Homo sapiens, KP-4, read-out: IC50 in μM KP-4 (Pancreatic). The method, then: as §2, §3
The next test has as its system PANC1 cells. Nature of the test: Sphere formation assay (cancer stemness). It is filed as cell-based. The note with it: Homo sapiens, PANC-1, read-out: concentration exhibiting at least 50% inhibition on the sphere forming efficiency. As for the experimental part:
A group of diterpenoid compounds of the present disclosure were tested to assess their effects on blocking formation of spheres from cancer cell lines such as PANC1, a K-Ras mutant pancreatic cell line. Briefly, PANC1 cells were harvested, re-suspended as single cell suspensions, counted and seeded into Ultra Low Attachment Culture 96-well plate (Corning, Cat #3474) at 100 cells/well in 100 μl of complete media (with 10% FBS) containing 2% Matrigel (Corning, Cat #354234) and DMSO or compounds. Six replicates per condition were seeded. The seeded cells were placed in the 37° C. tissue culture incubator. 10 μl of low serum containing media (with 0.1% FBS) was added to each well every week. Spheres formed after 3-4 weeks were counted. Sphere forming efficiency was expressed as percentage of # of spheres/# of cells seeded.

T1 sequence (Q05655 230-280 limits assumed): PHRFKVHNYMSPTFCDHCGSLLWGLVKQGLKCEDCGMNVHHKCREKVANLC
T5 sequence (Q02156 242-292 limits assumed): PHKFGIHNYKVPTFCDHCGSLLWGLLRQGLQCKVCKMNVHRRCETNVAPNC

As to `CC1=C[C@H]2[C@@]3(O)[C@H](C)C[C@]4(OC(=O)CCc5ncc(-c6ccc(Cl)cc6)o5)[C@H]([C@@H]3C=C(CO)C[C@]2(O)C1=O)C4(C)C` [Compound K101-C1321], the Ki (at C1b domain of human PKCδ; in test [1]) was < 0.005 µM throughout. In addition, the “Ki PKCα” value on C1b domain of human PKCα was “E (E=>60 nM and ≤10 nM)”. In addition, in test [2] (0.3 μM, Western blot (FIG. 1)), the “phosphorylation of PKC (PKD/PKCμ), PKCδ and Erk1/2” value was “induced high levels of phosphorylation”. For the same molecule, the IC50 in test [3] was in the range of 0.03 to 0.06 µM; in test [4] it was 0.06 to 0.1 µM; in test [5], 0.03 to 0.06 µM; in test [6] it was 0.01 to 0.03 µM. Besides, the “ratio of (IC50 of K01)/(IC50 of compound), HL-60” value in test [4] is on record as 5.71. Besides, the “ratio of (IC50 of K01)/(IC50 of compound), Namalwa” value in test [5] turned out to be 1.15. Also, the “ratio of (IC50 of K01)/(IC50 of compound), Mino” value in [6] worked out at 5.36.

Turning to `CC1=C[C@H]2[C@@]3(O)[C@H](C)C[C@]4(OC(=O)[C@H](N)Cc5ccccc5)[C@H]([C@@H]3C=C(CO)C[C@]2(O)C1=O)C4(C)C` [Compound K101-C1336], the Ki at C1b domain of human PKCδ lay within 0.1 to 0.2 µM; at C1b domain of human PKCα, 2 to 4 µM; in [1] it was 0.03 to 0.06 µM. The “phosphorylation of PKC (PKD/PKCμ), PKCδ and Erk1/2” value in test [2] (3 μM, Western blot) is “induced phosphorylation”. In [3], the IC50 was in the range of 1 to 2 µM.

For the molecule `CC1=C[C@H]2[C@@]3(O)[C@H](C)C[C@]4(OC(=O)C(C)(C)C)[C@H]([C@@H]3C=C(CO)C[C@]2(O)C1=O)C4(C)C` [Compound K101-C1308], the Ki at C1b domain of human PKCδ is 0.001 to 0.03 µM; at C1b domain of human PKCα it was 0.8 to 1 µM; at C1b domain of human PKCθ, 0.03 to 0.06 µM; at C1b domain of human PKCε it was 0.001 to 0.03 µM; in [1], 0.005 to 0.01 µM. Also, the IC50 in [3] was 0.06 to 0.1 µM; in test [7] (read-out: IC50 in μM Panc2.13 (Pancreatic)), 0.1 to 0.2 µM; in test [8], 0.1 to 0.2 µM; in test [4] it was 0.06 to 0.1 µM; in test [5], 0.03 to 0.06 µM; in [6] it was 0.01 to 0.03 µM. For the same molecule, the IC50 with PANC1 cells is ≤ 0.15 µM. Further, in test [7] (Panc2.13, value in parenthesis), the “ratio of (IC50 of K01)/(IC50 of compound), Panc2.13” value was determined as 6.29. The “ratio of (IC50 of K01)/(IC50 of compound), HL-60” value in [4] amounted to 5.29. Besides, the “ratio of (IC50 of K01)/(IC50 of compound), Namalwa” value in [5] is listed as 1.38. The “ratio of (IC50 of K01)/(IC50 of compound), Mino” value in [6] is recorded as 6.82.

For `CC1=C[C@H]2[C@@]3(O)[C@H](C)C[C@]4(OC(=O)CCc5ccccn5)[C@H]([C@@H]3C=C(CO)C[C@]2(O)C1=O)C4(C)C` [Compound K101-C1316], the Ki was 0.1 to 0.2 µM at C1b domain of human PKCδ, 6 to 8 µM on C1b domain of human PKCα and 0.03 to 0.06 µM in test [1]. Also, the “phosphorylation of PKC (PKD/PKCμ), PKCδ and Erk1/2” value in [2] (3 μM, Western blot) is “induced phosphorylation”. Moreover, the IC50 in test [3] lay within 0.6 to 1 µM.
